# Assay results as given in ChEMBL document CHEMBL5252519, “Design strategies, structure activity relationship and mechanistic insights for purines as kinase inhibitors” (Eur J Med Chem, 2016).
# Key:
# [1] = biological target: T1, Phosphatidylinositol 4,5-bisphosphate 3-kinase catalytic subunit delta isoform (Homo sapiens, UniProt O00329); assay: Inhibition of human PI3K-delta using PIP2 as substrate in presence of gamma[32P]ATP
# T1 sequence (O00329 whole entry): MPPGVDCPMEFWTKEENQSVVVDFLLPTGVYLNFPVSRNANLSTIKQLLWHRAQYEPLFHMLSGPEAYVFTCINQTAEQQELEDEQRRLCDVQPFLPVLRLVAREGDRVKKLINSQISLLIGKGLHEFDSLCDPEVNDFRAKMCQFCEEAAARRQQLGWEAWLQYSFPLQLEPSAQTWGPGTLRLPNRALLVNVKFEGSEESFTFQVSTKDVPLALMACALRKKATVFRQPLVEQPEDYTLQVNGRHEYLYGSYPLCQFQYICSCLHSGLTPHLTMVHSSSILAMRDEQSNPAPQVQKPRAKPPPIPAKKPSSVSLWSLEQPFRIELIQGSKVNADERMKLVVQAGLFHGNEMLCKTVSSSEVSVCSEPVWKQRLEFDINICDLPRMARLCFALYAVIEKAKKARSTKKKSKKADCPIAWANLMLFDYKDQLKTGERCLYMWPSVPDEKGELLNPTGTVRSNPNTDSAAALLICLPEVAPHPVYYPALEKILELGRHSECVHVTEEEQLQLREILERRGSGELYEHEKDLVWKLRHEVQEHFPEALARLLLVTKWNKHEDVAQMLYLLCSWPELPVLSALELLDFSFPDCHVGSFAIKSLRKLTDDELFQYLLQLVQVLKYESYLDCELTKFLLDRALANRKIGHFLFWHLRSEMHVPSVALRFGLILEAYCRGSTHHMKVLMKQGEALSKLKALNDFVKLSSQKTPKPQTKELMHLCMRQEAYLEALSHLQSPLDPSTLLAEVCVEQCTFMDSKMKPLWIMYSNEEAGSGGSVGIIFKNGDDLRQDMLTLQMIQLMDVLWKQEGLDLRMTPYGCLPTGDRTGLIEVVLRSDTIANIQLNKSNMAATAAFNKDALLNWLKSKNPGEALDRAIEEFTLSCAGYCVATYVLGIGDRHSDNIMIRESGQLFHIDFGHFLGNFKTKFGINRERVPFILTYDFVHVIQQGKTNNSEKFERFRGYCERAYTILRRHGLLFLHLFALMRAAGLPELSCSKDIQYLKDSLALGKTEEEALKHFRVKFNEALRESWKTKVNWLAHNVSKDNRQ
# Janus Kinase (JAK) = Janus Kinase (JAK) (Homo sapiens, UniProt P52333+P23458+O60674+P29597); assay: Inhibition of JAK (unknown origin); format: protein assay
# CDK9/Cyclin T = CDK9/Cyclin T (Homo sapiens, UniProt P50750); assay: Inhibition of CDK9/Cyclin T (unknown origin) using (YSPTSPS)3 peptide as substrate incubated for 30 mins in presence of gamma[33P]ATP by digital imaging analysis; format: protein-complex assay
# [2] = biological target: Tyrosine-protein kinase SYK (Homo sapiens, UniProt P43405); assay: Inhibition of SYK (unknown origin) using biotinylated EDPDYEWPSA as substrate incubated for 30 mins in presence of 33P-ATP by Scintillation Proximity Assay
# MCF7 = assay: Cytotoxicity against human MCF7 cells incubated for 48 hrs by SRB assay; format: functional, cell-based; conditions: MCF7, 48 h
# [3] = biological target: T1, Phosphatidylinositol 4,5-bisphosphate 3-kinase catalytic subunit delta isoform; assay: Inhibition of PI3K-delta (unknown origin)
# [4] = biological target: Cyclin-dependent kinase 2/cyclin A (Homo sapiens, UniProt P24941); assay: Inhibition of human CDK2/cyclinA using histone H1 as substrate incubated for 30 mins in presence of gamma[32P]ATP by phosphoimaging analysis; format: protein-complex assay
# [5] = Antiproliferative activity against HUVEC cells assessed as cell growth inhibition measured after 72 hrs by crystal violet staining based analysis; format: toxicity; conditions: human
# HMEC = assay: Inhibition of cell migration in HMECs at 10 uM measured after 16 hrs by fluorescence based assay; format: functional; conditions: Homo sapiens
# [6] = biological target: Serine/threonine-protein kinase mTOR (Homo sapiens, UniProt P42345); assay: Inhibition of mTOR (unknown origin)
# [7] = biological target: Cyclin-dependent kinase 2/cyclin E (Homo sapiens, UniProt P24941); assay: Inhibition of CDK2/Cyclin E (unknown origin) using histone as substrate incubated for 30 mins in presence of gamma[33P]ATP by digital imaging analysis; format: protein-complex assay
# [8] = biological target: Phosphatidylinositol 4,5-bisphosphate 3-kinase catalytic subunit alpha isoform (Homo sapiens, UniProt P42336); assay: Inhibition of PI3K-p110alpha (unknown origin) incubated for 30 mins by fluorescence polarization assay
# Chain of Phosphatidylinositol 4,5-bisphosphate 3-kinase catalytic subunit alpha isoform (P42336 whole entry, canonical isoform): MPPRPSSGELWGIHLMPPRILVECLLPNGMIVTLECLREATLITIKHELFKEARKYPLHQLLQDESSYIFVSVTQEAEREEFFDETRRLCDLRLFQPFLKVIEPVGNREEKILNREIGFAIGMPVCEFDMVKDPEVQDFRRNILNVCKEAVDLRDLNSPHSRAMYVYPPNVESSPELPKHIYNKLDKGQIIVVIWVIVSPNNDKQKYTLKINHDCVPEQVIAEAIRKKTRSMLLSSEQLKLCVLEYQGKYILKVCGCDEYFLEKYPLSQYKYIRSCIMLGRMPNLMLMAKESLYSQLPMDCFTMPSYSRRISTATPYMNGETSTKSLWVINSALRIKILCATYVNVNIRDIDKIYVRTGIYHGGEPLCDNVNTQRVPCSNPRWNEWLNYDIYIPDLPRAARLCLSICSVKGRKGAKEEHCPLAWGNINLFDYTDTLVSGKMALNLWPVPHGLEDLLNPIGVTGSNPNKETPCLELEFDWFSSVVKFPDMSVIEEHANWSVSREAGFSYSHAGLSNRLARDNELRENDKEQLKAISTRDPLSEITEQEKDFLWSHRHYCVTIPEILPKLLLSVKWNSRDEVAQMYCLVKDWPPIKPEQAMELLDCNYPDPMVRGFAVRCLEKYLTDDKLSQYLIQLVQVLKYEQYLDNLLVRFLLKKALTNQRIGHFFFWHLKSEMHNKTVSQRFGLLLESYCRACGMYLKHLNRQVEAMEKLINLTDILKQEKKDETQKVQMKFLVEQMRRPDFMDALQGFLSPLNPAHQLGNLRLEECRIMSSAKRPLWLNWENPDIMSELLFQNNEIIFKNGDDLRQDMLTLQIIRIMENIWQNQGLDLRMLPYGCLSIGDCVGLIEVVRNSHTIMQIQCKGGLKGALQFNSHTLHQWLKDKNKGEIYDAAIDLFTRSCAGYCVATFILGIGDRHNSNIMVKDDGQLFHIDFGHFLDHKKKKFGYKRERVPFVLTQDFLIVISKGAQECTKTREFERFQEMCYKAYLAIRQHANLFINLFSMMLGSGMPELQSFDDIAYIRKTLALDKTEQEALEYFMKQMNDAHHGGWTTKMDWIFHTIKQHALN
# Chain of CDK9/Cyclin T (O60563 whole entry): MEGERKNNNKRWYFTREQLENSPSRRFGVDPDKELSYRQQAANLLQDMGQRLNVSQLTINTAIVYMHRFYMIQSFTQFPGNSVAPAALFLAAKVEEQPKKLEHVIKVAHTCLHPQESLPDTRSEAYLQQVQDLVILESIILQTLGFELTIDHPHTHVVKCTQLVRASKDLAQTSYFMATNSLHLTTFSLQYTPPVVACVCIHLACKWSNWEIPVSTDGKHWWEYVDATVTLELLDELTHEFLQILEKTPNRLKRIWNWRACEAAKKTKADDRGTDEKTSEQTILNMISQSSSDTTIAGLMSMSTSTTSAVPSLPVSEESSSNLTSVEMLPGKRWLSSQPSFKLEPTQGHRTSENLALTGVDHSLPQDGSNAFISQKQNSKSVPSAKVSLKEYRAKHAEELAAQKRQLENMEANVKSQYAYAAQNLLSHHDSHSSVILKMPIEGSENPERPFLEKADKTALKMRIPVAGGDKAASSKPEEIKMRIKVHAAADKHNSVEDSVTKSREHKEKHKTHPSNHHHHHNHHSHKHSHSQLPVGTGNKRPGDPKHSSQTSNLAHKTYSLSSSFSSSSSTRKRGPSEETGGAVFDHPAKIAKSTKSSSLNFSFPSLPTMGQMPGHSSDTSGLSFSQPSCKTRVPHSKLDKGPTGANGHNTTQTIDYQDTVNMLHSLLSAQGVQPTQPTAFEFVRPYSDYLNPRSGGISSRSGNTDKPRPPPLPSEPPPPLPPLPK
# Chain of CDK9/Cyclin T (P50750 whole entry): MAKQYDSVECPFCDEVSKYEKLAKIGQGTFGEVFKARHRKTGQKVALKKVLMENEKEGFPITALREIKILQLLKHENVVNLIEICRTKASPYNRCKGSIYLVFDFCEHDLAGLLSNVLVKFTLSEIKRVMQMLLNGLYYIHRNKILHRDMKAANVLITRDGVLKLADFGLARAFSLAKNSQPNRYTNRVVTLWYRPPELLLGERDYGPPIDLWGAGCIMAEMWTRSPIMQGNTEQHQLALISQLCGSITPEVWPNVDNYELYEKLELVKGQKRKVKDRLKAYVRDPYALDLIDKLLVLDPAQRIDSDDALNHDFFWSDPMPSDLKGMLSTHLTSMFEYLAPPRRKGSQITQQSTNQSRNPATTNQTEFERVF
# Chain of CDK9/Cyclin T (O60583 whole entry, further chain): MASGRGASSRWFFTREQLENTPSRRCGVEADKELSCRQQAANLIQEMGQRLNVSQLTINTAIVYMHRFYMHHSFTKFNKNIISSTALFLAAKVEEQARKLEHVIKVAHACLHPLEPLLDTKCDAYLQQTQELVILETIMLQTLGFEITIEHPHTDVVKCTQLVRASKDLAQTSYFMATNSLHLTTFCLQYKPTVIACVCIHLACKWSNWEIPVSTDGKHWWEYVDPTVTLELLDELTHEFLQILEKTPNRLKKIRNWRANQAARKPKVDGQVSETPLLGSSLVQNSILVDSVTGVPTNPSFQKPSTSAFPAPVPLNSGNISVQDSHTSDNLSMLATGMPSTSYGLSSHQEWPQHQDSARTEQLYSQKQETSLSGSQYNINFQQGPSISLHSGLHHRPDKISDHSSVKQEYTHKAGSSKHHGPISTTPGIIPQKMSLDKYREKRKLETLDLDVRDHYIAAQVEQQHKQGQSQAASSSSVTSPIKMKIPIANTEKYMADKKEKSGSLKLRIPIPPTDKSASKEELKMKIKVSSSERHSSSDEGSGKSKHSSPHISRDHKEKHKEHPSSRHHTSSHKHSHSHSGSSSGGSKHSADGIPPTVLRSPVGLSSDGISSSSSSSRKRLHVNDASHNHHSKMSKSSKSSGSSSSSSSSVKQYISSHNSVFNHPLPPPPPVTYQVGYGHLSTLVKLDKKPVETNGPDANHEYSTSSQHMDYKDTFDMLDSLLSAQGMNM
smiles,measurement,setting,value
CCC(Nc1ncnc2[nH]cnc12)c1nc2cccc(Cl)c2c(=O)n1-c1c(F)cccc1F (centres undefined),IC50,[1],26 nM
COc1cc(Nc2nc(NC3C4C=CC(C4)C3C(N)=O)c3nc[nH]c3n2)cc(OC)c1OC (centres undefined),IC50,Janus Kinase (JAK),< 1 nM
CC(C)Oc1cccc(Nc2nc(NC3C4C=CC(C4)C3C(N)=O)c3nc[nH]c3n2)c1 (centres undefined),IC50,Janus Kinase (JAK),< 1 nM
NC(=O)C1C2C=CC(C2)C1Nc1nc(Nc2cccc(S(N)(=O)=O)c2)nc2[nH]cnc12 (centres undefined),IC50,Janus Kinase (JAK),< 1 nM
COc1cccc(CNc2nc(NC3CCCCC3N)nc3c2ncn3C(C)C)c1O (centres undefined),IC50,CDK9/Cyclin T,7 nM
CC(C)(C)Nc1nc(Nc2ccc(CC(=O)O)cc2)nc2[nH]cnc12,IC50,[2],5 nM
Cc1nn(-c2ccccc2)c2ncn(N)c(=O)c12,IC50,MCF7,89200 nM
CCC(Nc1ncnc2[nH]cnc12)c1nc2cccc(C)c2c(=O)n1-c1cc(F)cc(F)c1 (centres undefined),IC50,[1],12 nM
Cc1nn(-c2ccccc2)c2ncnc(Nc3ccc(C(=O)N4CCOCC4)cc3)c12,IC50,MCF7,14900 nM
CS(=O)(=O)N1CCN(CCn2cnc3c(-n4c(C(F)F)nc5ccccc54)nc(N4CCOCC4)nc32)CC1,IC50,[3],< 30 nM
c1nc2c(NC3CC4CCC3C4)nc(Nc3ccc(N4CCCCC4)cc3)nc2[nH]1 (centres undefined),IC50,Janus Kinase (JAK),< 1 nM
CC(C)[C@H](CO)Nc1nc(Nc2ccc(Cl)c(N)c2)c2ncn(C(C)C)c2n1,IC50,[4],< 50 nM
CC[C@@H](CO)Nc1nc(NCc2cccc(OC)c2O)c2ncn(C(C)C)c2n1,EC50 at 72 h,[5],2850 nM
same,inhibition at 10 µM,HMEC,14%
NC(=O)[C@@H]1[C@H](Nc2nc(Nc3cccc(S(N)(=O)=O)c3)nc3[nH]cnc23)[C@H]2C=C[C@@H]1C2,IC50,Janus Kinase (JAK),< 1 nM
CC(C)Nc1nc(Nc2ccc(S(=O)(=O)N(C)C)cc2)nc2[nH]cnc12,IC50,[2],5 nM
O=C(Nc1ccc(-c2nc(C3=CCOCC3)c3cnn(CC(F)(F)F)c3n2)cc1)Nc1cccnc1,IC50,[6],2.4 nM
OCCn1cnc2c(-c3cn[nH]c3)nc(N3CCOCC3)nc21,IC50,[3],< 30 nM
CC(C)C(CO)Nc1nc(Nc2cccc(Cl)c2)c2ncn(C(C)C)c2n1 (centres undefined),IC50,[4],< 50 nM
CC[C@@H](CO)Nc1nc(NCc2ccccc2O)c2ncn(C(C)C)c2n1,EC50 at 72 h,[5],1590 nM
CC(C)[C@H](CO)Nc1nc(Nc2ccc(Cl)c(C(=O)O)c2)c2ncn(C(C)C)c2n1,IC50,[4],< 50 nM
CCC(CO)Nc1nc(NCc2cc(C)ccc2O)c2ncn(C(C)C)c2n1 (centres undefined),IC50,CDK9/Cyclin T,6 nM
CC[C@H](Nc1ncnc2[nH]cnc12)c1nc2cccc(Cl)c2c(=O)n1-c1cc(F)cc(F)c1,IC50,[1],45 nM
CC[C@H](CO)Nc1nc(NCc2cccc(OC)c2O)c2ncn(C(C)C)c2n1,EC50 at 72 h,[5],7120 nM
same,inhibition at 10 µM,HMEC,54%
C/C=N/Nc1ccc(Nc2nc(NCC)c3nc[nH]c3n2)cc1,IC50,[2],5 nM
COc1cccc(CNc2nc(NC3CCC(N)CC3)nc3c2ncn3C(C)C)c1O (centres undefined),IC50,[7],20 nM
same,IC50,CDK9/Cyclin T,9 nM
CC(C)(C)c1nc2c(N3CCOCC3)nc(-c3cccc4[nH]ccc34)nc2n1CCO,IC50,[8],< 10 nM
CC(C)[C@H](CO)Nc1nc(Nc2cccc(Cl)c2)c2ncn(C(C)C)c2n1 [PURVALANOLA],IC50,[4],< 50 nM
Cc1nc(N)ncc1-c1nc(N2CCOCC2)c2nc(C(C)(C)C)n(CCO)c2n1,IC50,[8],< 10 nM
CC(=O)N1N=C(c2ccc(Nc3ncnc4c3c(C)nn4-c3ccccc3)cc2)CC1c1ccc(Cl)cc1 (centres undefined),IC50,MCF7,14900 nM
CC(C)n1cnc2c(NCc3cc(F)ccc3O)nc(NC3CCC(N)CC3)nc21 (centres undefined),IC50,[7],20 nM
same,IC50,CDK9/Cyclin T,8 nM
